Experimental data published in PubChem BioAssay (NCI).
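Cultured in 96-well plates, cells were exposed to test compound for 48 hours across five concentrations. GI50 = concentration required for 50% inhibition of growth. At the TGI there is no net growth.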

How the values were obtained:
Experiment in all cases: NCI tumour cell line growth inhibition, 48 h; in the data active = GI50 below about 0.43 µM; inactive = the rest
[1] = tested on: HT29 colon
[2] = tested on: HCT-116 colon
[3] = tested on: SW-620 colon
[4] = tested on: T-47D breast
[5] = tested on: NCI-H522 lung
[6] = tested on: K-562 leukemia
[7] = tested on: IGROV1 ovarian
[8] = tested on: COLO 205 colon
[9] = tested on: U251 CNS
[10] = tested on: SN12C renal
[11] = tested on: MCF7 breast
[12] = tested on: DU-145 prostate
[13] = tested on: SR leukemia
[14] = tested on: UACC-257 melanoma
[15] = tested on: PC-3 prostate
[16] = tested on: SK-MEL-5 melanoma
[17] = tested on: OVCAR-8 ovarian
[18] = tested on: 786-0 renal
[19] = tested on: NCI-H226 lung
[20] = tested on: SK-OV-3 ovarian
[21] = tested on: KM12 colon
[22] = tested on: HOP-62 NSCLC
[23] = tested on: LOX IMVI melanoma
[24] = tested on: CAKI-1 renal
[25] = tested on: MDA-MB-435
[26] = tested on: SNB-19 CNS
[27] = tested on: MDA-MB-231 breast
[28] = tested on: SK-MEL-2 melanoma
[29] = tested on: UACC-62 melanoma
[30] = tested on: OVCAR-3 ovarian
[31] = tested on: RPMI-8226 leukemia
[32] = tested on: BT-549 breast
[33] = tested on: HL-60(TB) leukemia
[34] = tested on: SF-268 CNS
[35] = tested on: CCRF-CEM leukemia
[36] = tested on: MOLT-4 leukemia
[37] = tested on: A549 NSCLC
[38] = tested on: NCI-H23 lung
[39] = tested on: HCT-15 colon
[40] = tested on: ACHN renal
[41] = tested on: SNB-75 CNS
[42] = tested on: MALME-3M melanoma
[43] = tested on: SF-295 CNS
[44] = tested on: HS 578T breast
[45] = tested on: NCI/ADR-RES ovarian
[46] = tested on: NCI-H460 lung
[47] = tested on: EKVX NSCLC
[48] = tested on: SF-539 CNS
[49] = tested on: TK-10 renal
[50] = tested on: OVCAR-5 ovarian
[51] = tested on: SK-MEL-28 melanoma
[52] = tested on: A498 renal
[53] = tested on: UO-31 renal
[54] = tested on: OVCAR-4 ovarian

OCC#Cc1ccccc1C#Cc1ccc(C#Cc2ccccc2C#CCO)cc1
95.7 µM: TGI [52]
> 100 µM: TGI [1] | TGI [3] | TGI [4] | TGI [5] | TGI [6] | TGI [7] | TGI [8] | TGI [9] | TGI [10] | TGI [11] | TGI [14] | TGI [15] | TGI [17] | TGI [19] | TGI [20] | TGI [21] | TGI [23] | TGI [24] | TGI [25] | TGI [26] | TGI [29] | TGI [33] | TGI [34] | TGI [35] | TGI [37] | TGI [38] | TGI [39] | TGI [40] | TGI [41] | TGI [42] | TGI [45] | TGI [46] | TGI [49] | TGI [51] | TGI [53] | TGI [54]
inactive: GI50 [1] 45.4 µM | GI50 [2] 25.8 µM | GI50 [3] 38.1 µM | GI50 [4] > 100 µM | GI50 [5] 50.1 µM | GI50 [6] 34 µM | GI50 [7] 30.4 µM | GI50 [8] > 100 µM | GI50 [9] 34 µM | GI50 [10] 31.6 µM | GI50 [11] 26.3 µM | GI50 [12] 27.3 µM | GI50 [13] 22 µM | GI50 [14] 89.5 µM | GI50 [15] 30.7 µM | GI50 [16] 23.7 µM | GI50 [17] 79.1 µM | GI50 [18] 32 µM | GI50 [19] 56.8 µM | GI50 [20] 55.4 µM | GI50 [21] 95.8 µM | GI50 [22] 28.1 µM | GI50 [23] 48.1 µM | GI50 [24] 68.3 µM | GI50 [25] > 100 µM | GI50 [26] 50 µM | GI50 [27] 25.5 µM | GI50 [28] 36.2 µM | GI50 [29] 58.6 µM | GI50 [30] 20 µM | GI50 [31] 26.4 µM | GI50 [32] 0.68 µM | GI50 [33] 90.5 µM | GI50 [34] 35.1 µM | GI50 [35] 38.1 µM | GI50 [36] 15.9 µM | GI50 [37] 32.7 µM | GI50 [38] 41.5 µM | GI50 [39] > 100 µM | GI50 [40] 36.2 µM | GI50 [41] 85.1 µM | GI50 [42] 98.9 µM | GI50 [43] 22.7 µM | GI50 [44] 24.3 µM | GI50 [45] 55.2 µM | GI50 [46] 28.3 µM | GI50 [47] 34.6 µM | GI50 [48] 34.9 µM | GI50 [49] 52.8 µM | GI50 [50] 30.4 µM | GI50 [51] > 100 µM | GI50 [52] 28.9 µM | GI50 [53] 36 µM | GI50 [54] 65.8 µM
97.1 µM: TGI [47]
82.6 µM: TGI [18]
91.3 µM: TGI [12]
89.3 µM: TGI [31]
39.6 µM: TGI [36]
58.7 µM: TGI [44]
56.6 µM: TGI [30]
62.6 µM: TGI [43]
66.7 µM: TGI [2]
58.1 µM: TGI [27]
68.5 µM: TGI [22]
59.3 µM: TGI [16]
49.5 µM: TGI [13]
75.9 µM: TGI [50]
91.5 µM: TGI [48]
32.2 µM: TGI [32]
79.9 µM: TGI [28]
